Test results published in patent US20260028326A1, “COMPOUND BASED ON ISOINDOLINE-SUBSTITUTED GLUTARIMIDE BACKBONE AND USE THEREOF” (GLUETACS THERAPEUTICS (SHANGHAI) CO., LTD., priority 2022, published 2026).

Tests used:
[1] = tested on: MM.1S cells; assay: Tumor cell proliferation IC50 (CCK-8), MM.1S; details: Homo sapiens, MM1.S, 72 h, read-out: IC50 for inhibiting the proliferation of tumor cells, MM.1S;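 further: viability of cultured cells read by CCK-8 reagent after compound exposure, growth inhibition curves fitted to derive IC50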
Description: (§1) The tumor cells used herein were cultured in a cell culture medium listed in table A at 37° C. in an incubator with 5% CO2.
(§2) After the cells were treated with the compounds of the present disclosure for a period of time, the cell viability detection reagent was added to the culture medium for cell viability assessment according to the instructions provided with the CCK-8 kit. […] The growth inhibition of the compounds of the present disclosure on cells was plotted by Prism Graphpad software, and the IC50 values of the compounds of the present disclosure were calculated therefrom.

[2] = tested on: Mino cells; assay: Tumor cell proliferation IC50 (CCK-8), Mino; details: Homo sapiens, 72 h, read-out: IC50 for inhibiting the proliferation of tumor cells, Mino;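 further: cell viability assessed with CCK-8 reagent after compound exposure, IC50 derived from plotted growth inhibition curves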
Description: as §1, §2

[3] = biological target: IKZF3 protein (Homo sapiens (Human), UniProt Q96SW2+Q9UKT9); assay: Western-blot assay of substrate protein degradation in hPBMC, IKZF3; format: cell-based; details: for residual substrate protein level, IKZF3: hPBMC cells, compound 500 nM, 24 hours, Western blot
Sequence of IKZF3 protein (Q9UKT9 whole entry): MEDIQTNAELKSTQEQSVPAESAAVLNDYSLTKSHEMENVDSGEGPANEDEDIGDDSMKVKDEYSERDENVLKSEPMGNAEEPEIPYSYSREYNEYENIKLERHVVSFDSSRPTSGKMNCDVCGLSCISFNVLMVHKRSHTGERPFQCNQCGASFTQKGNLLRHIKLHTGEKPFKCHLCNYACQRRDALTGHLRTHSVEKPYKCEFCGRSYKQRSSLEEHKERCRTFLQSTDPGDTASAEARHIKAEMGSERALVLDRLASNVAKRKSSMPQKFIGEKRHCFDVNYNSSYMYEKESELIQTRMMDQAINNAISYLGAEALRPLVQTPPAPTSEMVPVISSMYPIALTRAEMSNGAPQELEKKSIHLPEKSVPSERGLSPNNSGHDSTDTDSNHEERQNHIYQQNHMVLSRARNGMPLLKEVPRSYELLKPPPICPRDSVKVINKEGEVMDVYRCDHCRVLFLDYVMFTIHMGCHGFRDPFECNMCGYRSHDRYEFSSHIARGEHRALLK
Sequence of IKZF3 protein (Q96SW2 whole entry): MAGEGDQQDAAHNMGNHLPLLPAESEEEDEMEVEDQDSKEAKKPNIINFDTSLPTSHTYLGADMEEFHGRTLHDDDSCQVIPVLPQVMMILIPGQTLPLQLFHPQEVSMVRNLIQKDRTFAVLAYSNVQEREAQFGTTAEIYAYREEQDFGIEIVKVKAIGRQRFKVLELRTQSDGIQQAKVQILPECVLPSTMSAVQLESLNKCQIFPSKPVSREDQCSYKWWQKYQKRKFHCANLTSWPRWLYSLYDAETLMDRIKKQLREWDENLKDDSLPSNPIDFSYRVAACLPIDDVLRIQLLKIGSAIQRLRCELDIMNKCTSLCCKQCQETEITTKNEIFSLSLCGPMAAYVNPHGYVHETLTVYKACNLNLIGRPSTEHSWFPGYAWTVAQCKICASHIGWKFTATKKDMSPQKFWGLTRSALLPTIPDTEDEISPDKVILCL
Sequence of IKZF3 protein (Q16531 whole entry partner): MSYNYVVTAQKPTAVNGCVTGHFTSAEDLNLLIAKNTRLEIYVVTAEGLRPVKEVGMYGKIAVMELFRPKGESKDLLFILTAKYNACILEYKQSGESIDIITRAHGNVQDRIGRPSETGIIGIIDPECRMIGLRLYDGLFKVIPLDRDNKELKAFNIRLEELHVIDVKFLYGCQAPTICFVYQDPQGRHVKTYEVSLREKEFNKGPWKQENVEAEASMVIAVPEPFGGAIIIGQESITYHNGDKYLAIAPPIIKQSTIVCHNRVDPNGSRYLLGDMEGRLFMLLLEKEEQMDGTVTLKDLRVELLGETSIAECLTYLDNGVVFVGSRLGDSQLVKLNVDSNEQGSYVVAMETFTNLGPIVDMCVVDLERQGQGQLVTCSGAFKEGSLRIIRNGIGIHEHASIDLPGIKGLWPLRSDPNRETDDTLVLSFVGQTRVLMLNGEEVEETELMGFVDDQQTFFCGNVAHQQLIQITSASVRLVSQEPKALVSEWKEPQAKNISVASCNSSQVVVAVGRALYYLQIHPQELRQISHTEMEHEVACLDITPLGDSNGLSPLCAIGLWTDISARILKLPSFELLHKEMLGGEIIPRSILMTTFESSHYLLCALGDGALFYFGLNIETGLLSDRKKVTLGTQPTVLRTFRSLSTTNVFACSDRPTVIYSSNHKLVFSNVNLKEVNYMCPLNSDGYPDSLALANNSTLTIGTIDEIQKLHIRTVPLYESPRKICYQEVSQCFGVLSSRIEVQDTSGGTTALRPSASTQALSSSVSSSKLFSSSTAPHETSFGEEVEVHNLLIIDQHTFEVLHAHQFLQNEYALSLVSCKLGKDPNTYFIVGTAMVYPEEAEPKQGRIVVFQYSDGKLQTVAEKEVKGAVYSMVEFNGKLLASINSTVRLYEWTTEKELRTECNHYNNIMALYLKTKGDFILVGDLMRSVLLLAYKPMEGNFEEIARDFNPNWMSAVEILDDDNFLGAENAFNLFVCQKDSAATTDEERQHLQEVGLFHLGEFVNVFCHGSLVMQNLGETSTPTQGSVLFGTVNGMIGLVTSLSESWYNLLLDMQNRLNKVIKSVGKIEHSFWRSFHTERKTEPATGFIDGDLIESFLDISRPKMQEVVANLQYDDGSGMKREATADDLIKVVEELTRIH

[4] = biological target: IKZF1 protein (Homo sapiens (Human), UniProt Q13422+Q96SW2); assay: Western-blot assay of substrate protein degradation in hPBMC, IKZF1; format: cell-based; details: for residual substrate protein level, IKZF1: hPBMC cells, compound 500 nM, 24 hours, Western blot
Sequence of IKZF1 protein (Q13422 whole entry): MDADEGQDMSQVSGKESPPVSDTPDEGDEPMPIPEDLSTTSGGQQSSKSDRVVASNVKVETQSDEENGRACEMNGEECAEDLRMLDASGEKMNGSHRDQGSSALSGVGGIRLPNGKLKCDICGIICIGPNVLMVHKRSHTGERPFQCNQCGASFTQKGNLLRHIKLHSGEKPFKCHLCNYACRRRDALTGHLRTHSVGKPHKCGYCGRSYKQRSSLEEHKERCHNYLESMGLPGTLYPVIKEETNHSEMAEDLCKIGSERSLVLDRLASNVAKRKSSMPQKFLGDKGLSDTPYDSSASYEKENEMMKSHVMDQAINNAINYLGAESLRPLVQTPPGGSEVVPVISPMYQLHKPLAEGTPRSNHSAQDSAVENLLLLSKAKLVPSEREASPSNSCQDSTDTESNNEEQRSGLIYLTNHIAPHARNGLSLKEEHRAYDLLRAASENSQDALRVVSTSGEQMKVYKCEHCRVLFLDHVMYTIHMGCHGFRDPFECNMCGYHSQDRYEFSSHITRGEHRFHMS
Sequence of IKZF1 protein (Q96SW2 whole entry): as the sequence (Q96SW2 whole entry) above
Sequence of IKZF1 protein (Q16531 whole entry partner): as the sequence (Q16531 whole entry partner) above

[5] = tested on: Daudi cells; assay: Tumor cell proliferation IC50 (CCK-8), Daudi; details: Homo sapiens, read-out: IC50 for inhibiting the proliferation of tumor cells, Daudi;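 further: cell viability read with CCK-8 reagent after compound exposure of Daudi cells, IC50 derived from plotted growth inhibition curves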
[6] = tested on: CCRF-CEM cells; assay: Tumor cell proliferation IC50 (CCK-8), CCRF-CEM; details: Homo sapiens, 96 h, read-out: IC50 for inhibiting the proliferation of tumor cells, CCRF-CEM;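 further: cell viability measured with CCK-8 reagent after compound treatment, IC50 taken from plotted growth inhibition curves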
Description: as §1, §2

[7] = biological target: GSPT1 protein (Homo sapiens (Human), UniProt P15170+Q96SW2); assay: Western-blot assay of substrate protein degradation in hPBMC, GSPT1; format: cell-based; details: for residual substrate protein level, GSPT1: hPBMC cells, compound 500 nM, 24 hours, Western blot
Sequence of GSPT1 protein (P15170 whole entry): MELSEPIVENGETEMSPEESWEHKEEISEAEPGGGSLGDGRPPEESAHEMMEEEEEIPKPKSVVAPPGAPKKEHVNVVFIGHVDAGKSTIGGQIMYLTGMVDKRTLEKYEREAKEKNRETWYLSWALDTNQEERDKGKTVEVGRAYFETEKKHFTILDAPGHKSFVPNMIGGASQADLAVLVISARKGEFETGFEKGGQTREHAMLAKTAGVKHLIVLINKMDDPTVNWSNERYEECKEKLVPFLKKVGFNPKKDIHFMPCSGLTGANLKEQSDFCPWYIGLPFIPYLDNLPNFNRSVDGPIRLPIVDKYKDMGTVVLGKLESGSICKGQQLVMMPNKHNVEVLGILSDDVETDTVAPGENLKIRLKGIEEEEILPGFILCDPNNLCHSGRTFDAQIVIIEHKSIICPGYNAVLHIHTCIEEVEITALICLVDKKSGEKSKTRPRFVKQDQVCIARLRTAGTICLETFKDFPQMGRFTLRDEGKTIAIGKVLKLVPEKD
Sequence of GSPT1 protein (Q96SW2 whole entry): as the sequence (Q96SW2 whole entry) above
Sequence of GSPT1 protein (Q16531 whole entry partner): as the sequence (Q16531 whole entry partner) above

[8] = biological target: human Cereblon WT GST-tagged protein (Homo sapiens (Human), UniProt Q96SW2); assay: CRBN-binding affinity, HTRF (CEREBLON BINDING kit)
Sequence of human Cereblon WT GST-tagged protein (Q96SW2 whole entry): as the sequence (Q96SW2 whole entry) above
Outline: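 GST-tagged human WT Cereblon incubated with compound, then Thalidomide-Re tracer and anti-GST Eu antibody added. Displacement read by HTRF, reported as CRBN binding inhibition rate against blank control wells without protein.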

[9] = hPBMC, 24 h, serially diluted 0.03-1000 nM

| SMILES | IC50 [1] | IC50 [2] | IC50 [5] | IC50 [6] | IC50 [8] | concentration at which significant degradation effects on IKZF3 protein are exhibited (FIG. 1) [3, 9] | concentration at which significant degradation effects on IKZF1 protein are exhibited (FIG. 1) [4, 9] | concentration at which significant degradation effects on GSPT1 protein are exhibited (FIG. 1) [7, 9] | residual substrate protein level, IKZF3 [3] | residual substrate protein level, IKZF1 [4] | residual substrate protein level, GSPT1 [7] |
| --- | --- | --- | --- | --- | --- | --- | --- | --- | --- | --- | --- |
| Cc1ccc(C2=C(CN3CCN(Cc4ccc5c(c4)CN(C4CCC(=O)NC4=O)C5=O)CC3)CCC(C)(C)C2)cc1 (centres unmarked) [GT-05792, 3-(1-oxo-5-((4-((4′,5,5-trimethyl-3,4,5,6-tetrahydro-[1,1′-biphenyl]-2-yl)methyl)piperazin-1-yl)methyl)isoindolin-2-yl)piperidine-2,6-dione] | 5 to 10 nM | 5 to 10 nM | 50 to 100 nM | 5 to 10 nM | 660 nM |  |  |  |  |  |  |
| O=C1CCC(N2Cc3c(ccc(CN4CCN(Cc5ccccc5-c5ccc(F)cc5)CC4)c3F)C2=O)C(=O)N1 (centres unmarked) [GT-05602, 3-(4-fluoro-5-((4-((4′-fluoro-[1,1′-biphenyl]-2-yl)methyl)piperazin-1-yl)methyl)-1-oxoisoindolin-2-yl)piperidine-2,6-dione] | < 5 nM | < 5 nM | 5 to 10 nM | < 5 nM | 560 nM |  |  |  | A (A represents a residual substrate protein level of <50%) | A (A represents a residual substrate protein level of <50%) | A (A represents a residual substrate protein level of <50%) |
| CC1(C)CCC(CN2CCN(Cc3ccc4c(c3)CN(C3CCC(=O)NC3=O)C4=O)CC2)=C(c2cccs2)C1 (centres unmarked) [GT-05847, 3-(5-((4-((4,4-dimethyl-2-(thiophen-2-yl)cyclohex-1-en-1-yl)methyl)piperazin-1-yl)methyl)-1-oxoisoindolin-2-yl)piperidine-2,6-dione] | < 5 nM | < 5 nM | 10 to 50 nM | < 5 nM | 1000 nM |  |  |  | A (A represents a residual substrate protein level of <50%) | A (A represents a residual substrate protein level of <50%) | A (A represents a residual substrate protein level of <50%) |
| CC1(C)CCC(C(=O)N2CC3(CN(Cc4ccc5c(c4)CN(C4CCC(=O)NC4=O)C5=O)C3)C2)=C(c2ccc(F)cc2)C1 (centres unmarked) [GT-05664, 3-(5-((6-(4′-fluoro-5,5-dimethyl-3,4,5,6-tetrahydro-[1,1′-biphenyl]-2-carbonyl)-2,6-diazaspiro[3.3]heptan-2-yl)methyl)-1-oxoisoindolin-2-yl)piperidine-2,6-dione] | 10 to 50 nM | 10 to 50 nM | 100 to 500 nM | 10 to 50 nM | 560 nM |  |  |  | A (A represents a residual substrate protein level of <50%) | A (A represents a residual substrate protein level of <50%) | A (A represents a residual substrate protein level of <50%) |
| O=C1CCC(N2Cc3cc(NC4CCN(C(=O)c5ccccc5-c5ccc(Cl)cc5)CC4)ccc3C2=O)C(=O)N1 (centres unmarked) [GT-05784, 3-(5-((1-(4′-chloro-[1,1′-biphenyl]-2-carbonyl)piperidin-4-yl)amino)-1-oxoisoindolin-2-yl)piperidine-2,6-dione] | < 5 nM | < 5 nM | 10 to 50 nM | < 5 nM | 620 nM |  |  |  |  |  |  |
| O=C1CCC(N2Cc3cc(CN4CCN(C(=O)c5ccccc5-c5ccc(Cl)cc5)CC4C(F)(F)F)ccc3C2=O)C(=O)N1 (centres unmarked) [GT-05789, 3-(5-((4-(4′-chloro-[1,1′-biphenyl]-2-carbonyl)-2-(trifluoromethyl)piperazin-1-yl)methyl)-1-oxoisoindolin-2-yl)piperidine-2,6-dione] | 10 to 50 nM | 10 to 50 nM | 100 to 500 nM | 10 to 50 nM | 520 nM |  |  |  | B (B represents a residual substrate protein level of >50%) | B (B represents a residual substrate protein level of >50%) | A (A represents a residual substrate protein level of <50%) |
| O=C1CCC(N2Cc3cc(CN4CCN(Cc5ccccc5-c5ccc(Cl)cn5)CC4)ccc3C2=O)C(=O)N1 (centres unmarked) [GT-05860, 3-(5-((4-(2-(5-chloropyridin-2-yl)benzyl)piperazin-1-yl)methyl)-1-oxoisoindolin-2-yl)piperidine-2,6-dione] | < 5 nM | 5 to 10 nM | 10 to 50 nM | 5 to 10 nM | 560 nM |  |  |  | A (A represents a residual substrate protein level of <50%) | A (A represents a residual substrate protein level of <50%) | A (A represents a residual substrate protein level of <50%) |
| O=C1CCC(N2Cc3cc(CN4CCN(C(=O)c5ccccc5-c5ccc(Cl)cc5)CC4)c(F)cc3C2=O)C(=O)N1 (centres unmarked) [GT-05650, 3-(5-((4-(4′-chloro-[1,1′-biphenyl]-2-carbonyl)piperazin-1-yl)methyl)-6-fluoro-1-oxoisoindolin-2-yl)piperidine-2,6-dione] | 10 to 50 nM | 50 to 100 nM | 100 to 500 nM | 10 to 50 nM | 940 nM |  |  |  | A (A represents a residual substrate protein level of <50%) | A (A represents a residual substrate protein level of <50%) | A (A represents a residual substrate protein level of <50%) |
| O=C1CCC(N2C(=O)c3ccc(CN4CCN(Cc5ccc(-c6ccc(Cl)cc6)s5)CC4)cc3C2=O)C(=O)N1 (centres unmarked) [GT-05626, 5-((4-((5-(4-chlorophenyl)thiophen-2-yl)methyl)piperazin-1-yl)methyl)-2-(2,6-dioxopiperidin-3-yl)isoindoline-1,3-dione] |  | 500 to 1000 nM | 500 to 1000 nM | 500 to 1000 nM |  |  |  |  | B (B represents a residual substrate protein level of >50%) | B (B represents a residual substrate protein level of >50%) | B (B represents a residual substrate protein level of >50%) |

Continued, in another order:

| IC50 [1] | IC50 [2] | IC50 [5] | IC50 [6] | IC50 [8] | concentration at which significant degradation effects on IKZF3 protein are exhibited (FIG. 1) [3, 9] | concentration at which significant degradation effects on IKZF1 protein are exhibited (FIG. 1) [4, 9] | concentration at which significant degradation effects on GSPT1 protein are exhibited (FIG. 1) [7, 9] | SMILES | residual substrate protein level, IKZF3 [3] | residual substrate protein level, IKZF1 [4] | residual substrate protein level, GSPT1 [7] |
| --- | --- | --- | --- | --- | --- | --- | --- | --- | --- | --- | --- |
| 10 to 50 nM | 10 to 50 nM | 100 to 500 nM | 100 to 500 nM | 660 nM |  |  |  | O=C1CCC(N2Cc3cc(NC4CN(Cc5ccccc5-c5ccc(Cl)cc5)C4)ccc3C2=O)C(=O)N1 (centres unmarked) [GT-05382, 3-(5-((1-((4′-chloro-[1,1′-biphenyl]-2-yl)methyl)azetidin-3-yl)amino)-1-oxoisoindolin-2-yl)piperidine-2,6-dione] | A (A represents a residual substrate protein level of <50%) | A (A represents a residual substrate protein level of <50%) | A (A represents a residual substrate protein level of <50%) |
| 5 to 10 nM | 10 to 50 nM | 50 to 100 nM | 5 to 10 nM | 750 nM |  |  |  | Cn1cccc1-c1ccccc1CN1CCN(Cc2ccc3c(c2)CN(C2CCC(=O)NC2=O)C3=O)CC1 (centres unmarked) [GT-05683, 3-(5-((4-(2-(1-methyl-1H-pyrrol-2-yl)benzyl)piperazin-1-yl)methyl)-1-oxoisoindolin-2-yl)piperidine-2,6-dione] |  |  |  |
| < 5 nM | < 5 nM | 5 to 10 nM | < 5 nM | 560 nM |  |  |  | O=C1CCC(N2Cc3cc(CN4CCN(Cc5ncccc5-c5ccc(Cl)cc5)CC4)ccc3C2=O)C(=O)N1 (centres unmarked) [GT-05778, 3-(5-((4-((3-(4-chlorophenyl)pyridin-2-yl)methyl)piperazin-1-yl)methyl)-1-oxoisoindolin-2-yl)piperidine-2,6-dione] | A (A represents a residual substrate protein level of <50%) | A (A represents a residual substrate protein level of <50%) | A (A represents a residual substrate protein level of <50%) |
| < 5 nM | < 5 nM | 5 to 10 nM | 2.5 nM | 940 nM |  |  |  | O=C1CCC(N2Cc3cc(CN4CCN(Cc5ccccc5-c5ccc(F)cc5)CC4)c(F)cc3C2=O)C(=O)N1 (centres unmarked) [GT-05603, 3-(6-fluoro-5-((4-((4′-fluoro-[1,1′-biphenyl]-2-yl)methyl)piperazin-1-yl)methyl)-1-oxoisoindolin-2-yl)piperidine-2,6-dione] | A (A represents a residual substrate protein level of <50%) | A (A represents a residual substrate protein level of <50%) | A (A represents a residual substrate protein level of <50%) |
| 50 to 100 nM | 10 to 50 nM | 500 to 1000 nM | 500 to 1000 nM | 680 nM | < 3 nM | < 3 nM | < 3 nM | O=C1CCC(N2Cc3cc(CN4CCN(Cc5ccc(-c6ccc(Cl)cc6)cc5)CC4)ccc3C2=O)C(=O)N1 (centres unmarked) [GT-05598, 3-(5-((4-((4′-chloro-[1,1′-biphenyl]-4-yl)methyl)piperazin-1-yl)methyl)-1-oxoisoindolin-2-yl)piperidine-2,6-dione] | A (A represents a residual substrate protein level of <50%) | A (A represents a residual substrate protein level of <50%) | B (B represents a residual substrate protein level of >50%) |
